Laboratory results as given in patent US20190247449A1, “COMPOSITIONS COMPRISING A NON-PATHOGENIC BACTERIA AND METHODS FOR […] AND ANIMAL HOSTS FROM FUNGAL, BACTERIAL AND VIRAL DISEASES” (priority 2016, published 2019).

Legend:
Format in all cases: cell-based
[1] = tested on: NO production; experiment: Nitric oxide production by Griess assay in activated macrophages
Description: (§1) RAW 264.7 macrophages were grown in flat-bottomed flasks using a standard growth medium (DMEM supplemented with 5% FBS, antibiotics and glutamine. The cells were maintained in accordance with standard procedures well known in the art. After the cells reached confluence, they were removed from the flasks using mechanical means and then concentrated by centrifuging and resuspended in a small volume of fresh culture medium. The cell concentration was adjusted with growth medium in order that about 75,000 cells could be added to each well of a 96-well plate. A combination of 25 µg/mL LPS and 10 U/ml IFN-γ DMEM, was used for activation of the macrophages. The various test agents were added to the wells one hour prior to activation. The cells were then incubated for a further 24 hours, prior to assaying the inflammatory mediator production and cell viability.
The production of NO by the macrophages subjected to the various treatments was assayed using the Griess reagent (equal volumes of 1% sulphanilamide and 0.1% napthyethylene-diamine in 5% HCl). 70 μL of supernatant from each test well was transferred to a fresh 96-well plate and mixed with 70 μL of Griess reagent and the violet color produced was measured at 540 nm.

[2] = tested on: TNF-α production; experiment: TNF-α determination by ELISA in activated macrophages; details: RAW 264.7 macrophages activated with LPS and IFN-γ, agents added one hour before, 24 hours
Description: as §1
A sandwich ELISA was used to determine TNF-α concentration. The primary antibody was used at a concentration of […] in PBS. Serial dilutions of TNF-α standard from 0 to 1000 pg/mL in diluent (0.05% Tween-20, 0.1% BSA in PBS) were used as internal standard. TNF-α was detected with a biotinylated second antibody and an avidin peroxidase conjugate with TMB as detection reagent. The color development was monitored at 655 nm, taking readings after every 5 minutes. After 25 minutes, the reaction was stopped using 0.5 M sulphuric acid and the absorbance was measured at 450 nm.

[3] = tested on: RAW 264.7 macrophages; experiment: Cell viability, Alamar Blue assay; details: % of untreated control cells
Description: as §1
The Alamar Blue assay of viability was performed by adding 100 μL of a 10% Alamar Blue solution to each well and incubating at 37° C. for 1-2 hr. Fluorescence was measured (excitation at 545 nm and emission at 595 nm) and expressed as a percentage of the values in untreated control cells.

[4] = at the IC50 for inhibition of NO
[5] = at the IC50 for inhibition of TNF-α

Naringin
IC50 for the inhibition of NO production ([1]; RAW 264.7 macrophages activated with LPS and IFN-γ, agents added one hour before, 24 hours): 40 µg/mL | IC50 for the inhibition of TNF-α production [2]: 90 µg/mL | Cell viability (% of cell survival) [3, 4]: 90.10 ± 4.2 % of cell survival | Cell viability (% of cell survival) [3, 5]: 91.50 ± 5.2 % of cell survival

Steviol glycoside
IC50 for the inhibition of TNF-α production [2]: 80 µg/mL | Cell viability (% of cell survival) [3, 4]: 98.20 ± 4.2 % of cell survival | Cell viability (% of cell survival) [3, 5]: 99.54 ± 4.1 % of cell survival

C=C[C@](C)(O)CC[C@@H]1[C@@]2(C)CCCC(C)(C)[C@@H]2CC[C@@]1(C)O [Sclareol]
IC50 ([1]; Mus musculus, RAW264.7, read-out: IC50 for the inhibition of NO production): 40 µg/mL | IC50 ([2]; Mus musculus, RAW264.7, read-out: IC50 for the inhibition of TNF-α production): 80 µg/mL | Cell viability (% of cell survival) [3, 4]: 96.20 ± 2.1 % of cell survival | Cell viability (% of cell survival) [3, 5]: 95.30 ± 2.2 % of cell survival
